Source: US20250197461A1, “Insect-derived short peptide for improving abscisic acid (ABA) content in cruciferous plant” (Gannan Normal University, priority 2023, published 2025)

Key:
[1] = test system: Plutella xylostella larvae; test: Plutella xylostella larvae fed on Arabidopsis thaliana treated with short peptide; assay type: in vivo; conditions: third-instar larvae fed on treated Arabidopsis thaliana for 3 days
Excerpt: (5) Biological Experimental Observation after GSS-PI Short Peptide Treatment with Arabidopsis thaliana. • 1) 60 newly molted third-instar larvae fed on artificial feed were divided into 3 groups, and 20 larvae in each group were fed on Arabidopsis thaliana plants treated with GSS-P1 short peptide or GFP control short peptide; • 2) In order to prevent plants from being damaged mechanically or influenced by external factors, a simple interactive biological observation device for insect-plant interaction was used to eliminate potential interference factors; • 3) After 3 days, the simple interactive biological observation device was opened, and the number of larvae (4th instar larvae) was observed and counted, the number of larvae surviving was recorded, and divided by the initial number of 20 larvae to obtain the daily survival rate of larvae.

[2] = test system: Arabidopsis thaliana leaves; test: Non-targeted metabolomics of Arabidopsis thaliana leaves treated with short peptide; assay type: in vivo; conditions: 0.01 mg/mL, vs GFP control
Description: In this experiment, the materials used for metabonomics analysis and phytohormone detection are Arabidopsis thaliana samples with consistent growth status. Synthetic short peptide of GSS1-PI with the corresponding concentration and mass was weighed and dissolved in 0.1% DMSO to obtain a 0.01 mg/mL treatment solution. A wild-type Arabidopsis thaliana plant of about four weeks old was taken, two cotyledons were collected and mechanically damaged to obtain three small holes, 2 μL of the GSS1-PI solution was added dropwise into each small hole, while GFP solution was used as the control group. After 24 h and 48 h of treatment, approximately 0.2 g of Arabidopsis thaliana leaves were collected, and each treatment had three biological replicates. The leaves were quickly placed in liquid nitrogen and stored in a −80° C. ultra-low temperature refrigerator for subsequent phytohormone group detection and metabolomic analysis.
100 mg of Arabidopsis thaliana leaves was taken and added with liquid nitrogen for full grinding, and the fine powder was put in a 1.5 mL centrifuge tube. 500 μL of 80% methanol aqueous solution was pipette in the centrifuge tube and subjected to vortex oscillation to mix well, and the centrifuge tube was put on ice for 5 min. After standing, the mixture was centrifuged at 15000 g at 4° C. for 20 min. Then, 200 μL of supernatant was pipette and diluted with appropriate amount of mass spectrometry water until the methanol content in the solution was 53%. The dilution was centrifuged again for 20 min, the supernatant was retained and loaded for LC-MS analysis of the sample.
Related instruments were set as follows: chromatographic column temperature: 40° C.; injection flow rate: 0.2 mL/min; Positive ion mode: 0.1% formic acid for mobile phase A; mass grade methanol for mobile phase B; Negative ion mode: 5 mM ammonium acetate for mobile phase A, and mass grade methanol for mobile phase B.
The scanning range was m/z 100-1500: the setting of ESI signal source was as follows: spray voltage: […]; sheath gas flow rate: 35 psi; auxiliary gas flow rate: 10 L/min; ion transport tube temperature: 320° C.; iontophoresis RF frequency: 60; auxiliary heater temperature: 350° C.; MS/MS secondary scanning is set to dependency scanning data.
After the experiment was completed, the relevant data files were imported into the database search software for analysis and processing, and the residence time, mass-to-charge ratio and other related parameters of each metabolite were simply screened and checked. In order to identify more accurately, the different samples were peak-aligned, with the retention time deviation of 0.2 min and mass deviation of 5 ppm. Then peak extraction and peak area quantification were carried out to integrate the target ions, and then ion peaks were predicted by molecular formula and compared with local data. In order to remove the interference of background ions, the original quantitative results were standardized and blank sample controls were added. Finally, the relative quantitative results of the relevant metabolites were obtained and identified.
Multivariate statistical analysis of metabolite data included two parts, component analysis (PCA) and partial least squares discriminant analysis (PLS-DA). The data was converted by metaX, a metabonomics processing software, to get the VIP value of each metabolite. In univariate analysis, the statistical significance (P value) between the two groups of metabolites was analyzed by t test, and the fold change of metabolites between the two groups, that is, FC value, was calculated. The default screening criteria for differential metabolites were VIP>1, P value<0.05 and FC≥2 or FC≤0.5.

## PDYKQKLRDSKAWESLETIGIPLDADVM (insect-derived short peptide) [GSS1-PI]
[1]
  mortality rate of larvae: about 70%
[2]; 24 h
  log2FC 2-Phenylacetamide: 0.608
  log2FC 3,4,5-Trimethoxycinnamic acid: −1.348
  log2FC (−)-chimonanthine: 0.731
  log2FC Coumarin: −1.039
  log2FC Cytosine: 1.096
  log2FC Eriodictyol: 0.908
  log2FC Gracillin: −1.823
  log2FC Hesperidin: 0.708
  log2FC Hippuric acid: −0.465
  log2FC L-arginine: −0.600
  log2FC Madecassic acid: 1.041
  log2FC Methyl dihydrojasmonate: 0.784
  log2FC N-Methyltryptamine: −0.651
  log2FC Ptaquiloside: −1.418
  log2FC Quercetin 3-O-sophoroside: −2.173
  log2FC Rhoifolin: 0.699
  log2FC Spectinomycin: 0.579
  log2FC Tiglic acid: −0.663
  log2FC cis-2-Decenoic acid: −0.599
  log2FC α-Linolenoyl ethanolamide: 1.586
[2]; 48 h
  log2FC 2′-O-Methyladenosine: 1.543
  log2FC 3,4,5-Trimethoxycinnamic acid: −2.132
  log2FC 5α-Dihydrotestosterone glucuronide: −1.186
  log2FC 5′-Deoxy-5′-(Methylthio)Adenosine: 1.330
  log2FC 20-Hydroxyecdysone: −1.153
  log2FC Allantoic acid: −1.815
  log2FC Alpha-Mangostin: 1.363
  log2FC Benzamide: 1.564
  log2FC Camelliaside A: 1.640
  log2FC Cimifugin: 1.872
  log2FC Coumarin: −1.930
  log2FC Cucurbitacin E: 1.309
  log2FC DL-Methionine: 1.393
  log2FC DL-Panthenol: 1.615
  log2FC N-(p-Coumaroyl) serotonin: −1.010
  log2FC Neopterin: 1.709
  log2FC Saikosaponin B4: −1.655
  log2FC Sclareolide: −2.003
  log2FC Scopoletin: −1.518
  log2FC Sinapinic acid: −1.203
